In patent publication US10517954B2, “Pegylated carfilzomib compounds” (AMGEN INC., priority 2016, dated 2019):
One block for each compound: values may come before it.

Tests used:
[1] = test system: cellular proteasome chymotrypsin-like (CT-L) in MOLT-4 human acute lymphoblastic leukemia T lymphoblasts; assay: Proteosome inhibition in cells (AMC-LLVY fluorescent assay, FIGS. 9-14); format: cell-based; details: MOLT-4 cells, 1 hour incubation; read-out: cellular proteasome chymotrypsin-like (CT-L) IC50 inhibitory potency
Method: MOLT-4 human acute lymphoblastic leukemia T lymphoblasts were grown for at least 6 passages in growth media (RPMI-1640 basal media supplemented with 10% FBS and 1×L-glutamine). […] Serial dilutions were performed in DMSO to produce concentrations covering 7 logs, and then each serial dilution was further diluted 40× in growth media. Dilutions were then added in equal volume to wells containing cells, further diluting compound concentrations by two-fold. Cells were incubated at 37° C. (5% CO2) for 1 hour, then spun at 1500 rpm for 5 mins at RT. Media was removed and the cells were washed with PBS 3 times. After the last wash, supernatant was removed and the cell pellets were frozen on dry ice. Cell pellets were thawed and then lysed by resuspending in 50 uL lysis buffer on ice (20 mM Tris-HCl, 5 mM EDTA, pH 8). The preparation was centrifuged at 1500 rpm for 5 mins and then utilized directly for AMC-LLVY fluorescent assay.

[2] = test system: Proteasome chymotrypsin-like (CT-L) activity; assay: Proteasome CT-L activity in blood and tissues after i.v. dosing (FIG. 3); format: in vivo, mice (Balb/c); details: i.v. bolus; blood, adrenal gland, heart and liver, in mice
Method: Carfilzomib standard was formulated in an aqueous solution of 10% (w/v)sulfobutylether-β-cyclodextrin and 10 mmol/L sodium citrate (pH 3.5) for administration (5 mg/kg). At selected time points after i.v. drug administration, tissue samples (adrenal, heart, liver and bone marrow) were collected. Whole blood was collected by cardiac puncture into tubes containing sodium heparin.
Approximately 0.4 mL of whole blood is collected using either EDTA microcentrifuged tubes. Samples are immediately placed on ice and spun at maximum speed for 2 minutes in a microcentrifuge at room temperature (RT). Cell pellets are stored on wet ice. Whole blood cell pellets are resuspended in 1 ml of phosphate buffered saline (PBS) and centrifuged at max speed at 4° C. Supernatants are removed and the pellets are washed a second time with PBS. Samples are resuspended in 2 volumes of lysis buffer (20 mM Tris, pH 8.0, 5 mM EDTA) then frozen and stored at −80° C. until analysis. […]
All samples were thawed on ice. […] These samples were then ready for assaying, or they may be frozen at −80° C. […] These samples were then ready for assaying, or they may be frozen at −80° C. […] The protein concentration for each sample was measured by Bradford assay. Proteasome chymotrypsin-like (CT-L) activity was quantitated by monitoring the release of free AMC from the fluorogenic peptide Suc-Leu-Leu-Val-Tyr-AMC (BostonBiochem).

[3] = PEG-carfilzomib mouse pK (FIG. 2); set-up: species or system mice (Balb/c); details: in vivo, iv
Method: Mean plasma concentration (μM) following intravenous administration of PEG-carfilzomib conjugate to female Balb/c mice (n=3). Dosage indicated is mg/kg of PEG-carfilzomib conjugate. […] Blood samples were collected at the indicated time points and plasma carfilzomib concentrations were measured in duplicate by LC/MS-MS. […] This standard carfilzomib represents the currently approved formulation for carfilzomib for treatment of multiple myeloma.

[4] = test system: HT-29 Colorectal Adenocarcinoma Xenograph Model; assay: Second efficacy study in HT-29 xenograph model (FIG. 7); format: in vivo, SCID Beige Mice
Source text: (§1) Female Beige Severe Combined Immune Deficiency (SCID) mice (60 plus spares) were purchased from Harlan Laboratories (Livermore, Calif.) as 6- to 7-week-old mice. Following arrival, animals were weighed using an electronic balance (Ohaus SCOUT® PRO, Parsippany, N.J.), given a clinical examination to ensure that the animals were in good condition, and housed 5 per cage (prior to dosing). The animals were maintained in a HEPA-filtered environment in a Micro-VENT full-ventilation rodent housing system (Allentown Caging Equipment Co., Allentown, N.J.) providing at least 10 room air changes per hour Animal room controls were set to maintain temperature and relative humidity at 20° C.±1° C. and 50%±20%, respectively. Housing rooms were on a 12:12 light/dark cycle. Cages were autoclaved, and animals were bedded on SaniChip irradiated bedding 7990.BG (Harlan Teklad; Hayward, Calif.). Water was autoclaved and supplied ad libitum to each cage via water bottles. Irradiated 2018 Teklad Global 16% Protein Rodent Diet ((Harlan Teklad) supplied ad libitum to each cage.
Example 13 was formulated as described herein to the desired concentration. Carfilzomib was provided as CFZ-captisol (at 1 mg/mL). a powder sample of Example 13 was diluted to 30 mg/ml (Group 3) or 50 mg/ml (Group 4) in 10% ETOH/saline. Vehicle and CFZ-captisol were stored at 4° C. throughout the study. […]

[5] = mouse, in vivo, iv, 5 mg/kg
Method: The PEG carfilzomib compounds were administered to mice (Balb/c, male, n=9 per dose group) as an intravenous (i.v.) bolus at 5 mg/kg (equivalent to carfilzomib, dose volume 1 mL/kg). Blood samples from each mouse were collected at the indicated time points (0.5, 1, 2, 4, 6, 12, 16 and 24 hours post-dose) and 25 μL of the plasma samples were extracted by protein precipitation with 125 μL of acetonitrile containing D10-CFZ as an internal standard and then centrifuged. Carfilzomib concentrations were measured in the supernatant by LC-MS/MS using multiple reaction monitoring in the positive electrospray ionization mode. The lower limit of quantitation of the assay was 0.500 ng/mL.

[6] = test system: HT-29 Human Colorectal Adenocarcinoma Xenograph Model; assay: Efficacy study in HT-29 xenograph model (FIG. 5, FIG. 6, Table 6); format: in vivo, SCID Beige Mice; details: for % Change compared to Vehicle: Day 40; for Day 0 Tumor Vol: baseline; for # of animals at day 40: n = 10 at start
Source text: as §1
Example 13 was prepared as generally described above. The carfilzomib comparator compound was prepared as CFZ-captisol (at 1 mg/mL). A powder sample of example 13 was diluted to 30 mg/ml (Group 3) or 50 mg/ml (Group 3 beginning fourth dose) or 40 mg/ml (Group 4) in 10% ETOH/saline. Vehicle and CFZ-captisol were stored at 4° C. throughout the study. During the study, example 13 was inspected regularly for potential changes in the quality of the suspension; none were observed
NCI-HT29 (HT-29; ATCC® HTB-38™), a human colorectal adenocarcinoma cancer cell (CA) line, was purchased from ATCC (Manassas, Va.). Following receipt at the MGI, cells were grown in-house for 7 passages in RPMI 1640 and 10% fetal bovine serum, then used to generate frozen stocks. The cells were recovered from the frozen stocks and cultured as above. Following growth, the cells were spun down and resuspended at a concentration of 5E07 cells/mL in serum-free medium without additives, then combined 1:1 with Matrigel™ (Trevigen, Gaithersburg, Md.). At the time of implant, cells corresponded to MGI Passage 7 (MGP7).
At approximately 3 weeks prior to the projected staging day, mice were implanted by subcutaneous (SC) injection into the lower left abdominal flank with 200 μL (5.0E06 cells) per mouse of the freshly prepared HT29:Matrigel mixture. All procedures were carried out in HEPA-filtered laminar-flow hoods.
When the tumors reached a mean volume of approximately 200 mm^3 per mouse, forty animals with established tumors and moderate body weights were randomized into 4 treatment groups (n=10 mice per group). Starting on Day 0, animals were administered by once-weekly (qw) injection with vehicle (Group 1) or twice-weekly D1D2 injection (i.e., two adjacent days each week) with CFZ-captisol at 5 mpk (Group 2) or OP-59381 at 150 mg/kg (Groups 3). Starting with the fourth dose (i.e., after three week), dosing of Group 3 animals was increased to 250 mg/kg. Group 4 was dosed once-weekly (qw) injection with or OP-59381 (Example 13) at 200 mg/kg. All of these doses were administered as intravenous (IV) injections at dose volumes of 5 mL/kg. After the IV dosing for the seventh week (i.e., after Day 42 for Groups 1-4), the tumor treatment efficacy appeared to slow or cease altogether.

[7] = in humans; cited from earlier work
[8] = Group 3, 150 mpk to 250 mpk (QW) IV

Compound: 4-(4-Acetoxy-3-((1-PEG3K-1H-1,2,3-triazol-4-yl)methoxy)benzyl)-4-((4S,7S,10S,13S)-10-benzyl-7-isobutyl-15-methyl-13-((R)-2-methyloxirane-2-carbonyl)-2,5,8,11-tetraoxo-4-phenethyl-3,6,9,12-tetraazahexadecyl)morpholin-4-ium mesylate [Example 35]
- IC50 [1]: ~9 nM

Compound: 4-(4-acetoxy-3-((1-(5-((2-PEG3K-ethyl)amino)-5-oxopentyl)-1H-1,2,3-triazol-4-yl)methoxy)benzyl)-4-((4S,7S,10S,13S)-10-benzyl-7-isobutyl-15-methyl-13-((R)-2-methyloxirane-2-carbonyl)-2,5,8,11-tetraoxo-4-phenethyl-3,6,9,12-tetraazahexadecyl)morpholin-4-ium mesylate [Example 37]
- IC50 [1]: ~22.8 nM

Compound: 4-(4-Acetoxy-3-((1-(PEG20K-4-Arm)-1H-1,2,3-triazol-4-yl)methoxy)benzyl)-4-((4S,7S,10S,13S)-10-benzyl-7-isobutyl-15-methyl-13-((R)-2-methyloxirane-2-carbonyl)-2,5,8,11-tetraoxo-4-phenethyl-3,6,9,12-tetraazahexadecyl)morpholin-4-ium methanesulfonate [Example 1]
- CT-L activity versus standard carfilzomib [2]: comparable

Compound: 4-((4S,7S,10S,13S)-10-Benzyl-7-isobutyl-15-methyl-13-((R)-2-methyloxirane-2-carbonyl)-2,5,8,11-tetraoxo-4-phenethyl-3,6,9,12-tetraazahexadecyl)-4-(3-((1-(PEG20K-4-Arm)-1H-1,2,3-triazol-4-yl)methoxy)-4-(pivaloyloxy)benzyl)morpholin-4-ium formate [Example 13]
- plasma concentration relative to control [3]: multiple log-fold over that of the control
- Day-41 tumor sizes, % of control ([4]; Group 3, example 13 at 150 mg/kg IV (Table 7: QD × 2 (D1D2) × 6 weeks)): 79.6%
- Day-41 tumor sizes, % of control ([4]; Group 4, example 13 at 250 mg/kg IV, QW × 6 weeks): 61.8%
- AUC0-24 [5]: 3510 ng·h/mL
- T1/2 [5]: 3.68 h
- carfilzomib plasma concentration-time profile (FIG. 4) [5]: significantly higher plasma concentrations for that lengthy duration of time
- time carfilzomib is present in / released into the plasma post administration [5]: 25 h
- tumor growth vs. vehicle control by Day 19 ([6]; 200 mpk Example 13, 5 mpk CFZ-captisol): significantly attenuated
- Day 40 Tumor Vol [6, 8]: 998.5 mm^3
- % Change compared to Vehicle [6, 8]: −59.6%
- Day 0 Tumor Vol [6, 8]: 95.5 mm^3
- # of animals at day 40 [6, 8]: 9
- Day 40 Tumor Vol ([6]; Group 4, 200 mpk (QW) IV): 1443.0 mm^3
- % Change compared to Vehicle ([6]; Group 4, 200 mpk (QW) IV): −41.6%
- Day 0 Tumor Vol ([6]; Group 4, 200 mpk (QW) IV): 95.9 mm^3
- # of animals at day 40 ([6]; Group 4, 200 mpk (QW) IV): 7

Compound: 4-(4-acetoxy-3-((1-(5-((2-PEG2K-ethyl)amino)-5-oxopentyl)-1H-1,2,3-triazol-4-yl)methoxy)benzyl)-4-((4S,7S,10S,13S)-10-benzyl-7-isobutyl-15-methyl-13-((R)-2-methyloxirane-2-carbonyl)-2,5,8,11-tetraoxo-4-phenethyl-3,6,9,12-tetraazahexadecyl)morpholin-4-ium mesylate [Example 38]
- IC50 [1]: ~21.8 nM

- IC50 [1]: ~9.2 nM
Compound: CC(C)C[C@H](NC(=O)[C@H](CCc1ccccc1)NC(=O)CN1CCOCC1)C(=O)N[C@@H](Cc1ccccc1)C(=O)N[C@@H](CC(C)C)C(=O)[C@@]1(C)CO1 [carfilzomib, Carfilzomib]
- half-life in-vivo [7]: ≤ 1 h

Compound: 4-(4-Acetoxy-3-((1-PEG2K-1H-1,2,3-triazol-4-yl)methoxy)benzyl)-4-((4S,7S,10S,13S)-10-benzyl-7-isobutyl-15-methyl-13-((R)-2-methyloxirane-2-carbonyl)-2,5,8,11-tetraoxo-4-phenethyl-3,6,9,12-tetraazahexadecyl)morpholin-4-ium mesylate [Example 36]
- IC50 [1]: ~21.8 nM
